Source: paper PMC7038240 (Antimicrobial Agents and Chemotherapy, 2020)
Where two headings read alike, the source gives them in different places.

What was measured:
Type in all cases: cell-based
S. marcescens = experiment: microbe, parasite or virus in culture; conditions: Serratia marcescens
C. freundii = experiment: microbe, parasite or virus in culture; conditions: Citrobacter freundii
S. typhi = experiment: microbe, parasite or virus in culture; conditions: Salmonella enterica, strain 26A, AmpC/TEM-1
K. aerogenes = experiment: microbe, parasite or virus in culture; conditions: Klebsiella aerogenes
E. coli = experiment: microbe, parasite or virus in culture; conditions: Escherichia coli, read-out: MIC
P. aeruginosa = experiment: microbe, parasite or virus in culture; conditions: Pseudomonas aeruginosa, read-out: MIC
K. oxytoca = experiment: microbe, parasite or virus in culture; conditions: Klebsiella oxytoca, read-out: MIC
S. paratyphi = experiment: microbe, parasite or virus in culture; conditions: Salmonella enterica, strain 527, AmpC/TEM-1
K. pneumoniae = experiment: microbe, parasite or virus in culture; conditions: Klebsiella pneumoniae, read-out: MIC
M. morgannii = experiment: organism not typed; conditions: strain 769909; OXA-48
Source text: The antibacterial activity of cefepime-taniborbactam was compared to that of ceftazidime-avibactam, ceftolozane-tazobactam, and cefepime-tazobactam against a diverse panel of Enterobacterales and P. aeruginosa clinical isolates with defined β-lactamase subtypes (see Table S1 in the supplemental material). IMP-producing strains were excluded, as none of the BLI-protected cephalosporins inhibited IMP sufficiently to provide a clinically relevant rescue of the partner β-lactam, a characteristic also shared by approved BLI-protected carbapenems (meropenem-vaborbactam and imipenem-relebactam). […] The antibacterial activity of the cephalosporins alone was included to ascertain the level of potentiation by the partnered BLI. BLIs were tested at a fixed concentration of 4 μg/ml in all combinations except cefepime-tazobactam, where tazobactam was fixed at a concentration of 8 μg/ml ([38]). The collection comprised 143 clinical isolates collected from 2005 and 2018.
The in vitro antibacterial activity of the β-lactams alone or in combination with the BLIs was determined in cation-adjusted Mueller-Hinton broth (CAMHB) microdilution assays according to CLSI recommendations ([51]). […]. The inocula for the broth microdilution assays were prepared by the broth culture method ([51]). […]

Cn1c(N)c(NC(=O)NCCN)c[n+]1CC1=C(C(=O)O)N2C(=O)[C@@H](NC(=O)/C(=N\OC(C)(C)C(=O)[O-])c3nsc(N)n3)[C@H]2SC1 [TOL]
MIC (S. marcescens; strain 134434, AmpC/SHV-12/TEM-1): 64 µg/mL | MIC (S. marcescens; strain 192476, AmpC/TEM-1/SHV-5): 64 µg/mL | MIC (S. marcescens; strain 192478, AmpC/SHV-12/TEM-1): 64 µg/mL | MIC (S. marcescens; strain 218073, AmpC/SHV-7/TEM-1): 64 µg/mL | MIC (C. freundii; strain 134390, AmpC/TEM-1): 8 µg/mL | MIC (C. freundii; strain 241181, AmpC/TEM-163): 16 µg/mL | MIC (S. typhi): 16 µg/mL | MIC (K. aerogenes; strain 73546, AmpC): 4 µg/mL | MIC (K. aerogenes; strain 110099, AmpC/SHV-12): 64 µg/mL | MIC (K. aerogenes; strain 111707, AmpC/TEM-1): 4 µg/mL | MIC (E. coli; strain 469, AmpC/SHV-12/TEM-1): 8 µg/mL | MIC (E. coli; strain 1924, TEM-12): 16 µg/mL | MIC (E. coli; strain 664507, OXA-48): 64 µg/mL | MIC (E. coli; strain 664516, OXA-48): 64 µg/mL | MIC (E. coli; strain 664520, OXA-48): 64 µg/mL | MIC (E. coli; strain 664522, OXA-48): 128 µg/mL | MIC (E. coli; strain 664523, OXA-48): 64 µg/mL | MIC (E. coli; strain 849121, KPC): 32 µg/mL | MIC (E. coli; strain 873435, CTX-M-15): 128 µg/mL | MIC (E. coli; strain 875627, CTX-M-27): 16 µg/mL | MIC (E. coli; strain 878358, TEM-1/CTX-M): 64 µg/mL | MIC (E. coli; strain 890500, TEM-1/CTX-M-14): 8 µg/mL | MIC (E. coli; strain 1275635, VIM-23): ≥ 256 µg/mL | MIC (E. coli; strain 1459453, NDM-7): ≥ 256 µg/mL | MIC (E. coli; strain CDC-0001, KPC): 64 µg/mL | MIC (E. coli; strain CDC-0069, NDM): ≥ 256 µg/mL | MIC (E. coli; strain CDC-0149, NDM): ≥ 256 µg/mL | MIC (E. coli; strain EC1552 2A, AmpC/CMY-2/TEM-1, CTX-M-15): 16 µg/mL | MIC (E. coli; strain ESBL 5, CTX-M-15/TEM-1): 128 µg/mL | MIC (E. coli; strain SI-LP377, CTX-M-2): 32 µg/mL | MIC (E. coli; strain SI-M004, SHV-2/GES-12): 64 µg/mL | MIC (E. coli; strain SI-PO26, AmpC/CMY-2/TEM-1): 8 µg/mL | MIC (E. coli; strain SI-V502, TEM-29/CTX-M-15): 8 µg/mL | MIC (E. coli; strain VER, OXA-48): 2 µg/mL | MIC (P. aeruginosa; ATCC27853, strain ATCC 27853, W.T.): 1 µg/mL | MIC (P. aeruginosa; strain 10.257, PDC-50): 16 µg/mL | MIC (P. aeruginosa; strain 11.516, PDC-79): 64 µg/mL | MIC (P. aeruginosa; strain 11.698, PDC-87): 32 µg/mL | MIC (P. aeruginosa; strain 11.813, PDC-91): 8 µg/mL | MIC (P. aeruginosa; strain 13.1716, PDC-74): 128 µg/mL | MIC (P. aeruginosa; strain 13.1717, PDC-74): 64 µg/mL | MIC (P. aeruginosa; strain 13.1737, PDC-80): 128 µg/mL | MIC (P. aeruginosa; strain 13.1755, PDC-86): 128 µg/mL | MIC (P. aeruginosa; strain 13.1760, PDC-77): 32 µg/mL | MIC (P. aeruginosa; strain 13.1775, PDC-87): 16 µg/mL | MIC (P. aeruginosa; strain 247.3D, VIM-2): ≥ 256 µg/mL | MIC (P. aeruginosa; strain 1129, PDC): 1 µg/mL | MIC (P. aeruginosa; strain 3615, PDC/TEM-1): 4 µg/mL | MIC (P. aeruginosa; strain 5671, VIM-1): 64 µg/mL | MIC (P. aeruginosa; strain 8273, PDC/TEM-1): 1 µg/mL | MIC (P. aeruginosa; strain 164951, W.T.): 1 µg/mL | MIC (P. aeruginosa; strain 377860, W.T.): 1 µg/mL | MIC (P. aeruginosa; strain 384743, PDC/TEM-1): 16 µg/mL | MIC (P. aeruginosa; strain 1013996, KPC-2): 16 µg/mL | MIC (P. aeruginosa; strain 1071703, GES-6): 32 µg/mL | MIC (P. aeruginosa; strain 1113755, GES-5): ≥ 256 µg/mL | MIC (P. aeruginosa; strain 1138223, GES-19): ≥ 256 µg/mL | MIC (P. aeruginosa; strain 1138337, GES-19): ≥ 256 µg/mL | MIC (P. aeruginosa; strain 1258509, GES-6): 64 µg/mL | MIC (P. aeruginosa; strain 1275655, GES-20): ≥ 256 µg/mL | MIC (P. aeruginosa; strain 1300089, GES-19): ≥ 256 µg/mL | MIC (P. aeruginosa; strain 1313666, KPC-2): 32 µg/mL | MIC (P. aeruginosa; strain CDC-0090, KPC): 32 µg/mL | MIC (P. aeruginosa; strain PA2, W.T.): 2 µg/mL | MIC (P. aeruginosa; strain PAA1-9G1, GES-5): ≥ 256 µg/mL | MIC (P. aeruginosa; strain PAA1-9G2, GES-5): ≥ 256 µg/mL | MIC (P. aeruginosa; strain PS-12, VIM-2): ≥ 256 µg/mL | MIC (P. aeruginosa; strain PS-32, VIM-2): 128 µg/mL | MIC (P. aeruginosa; strain Paeβ-04, 100-fold ↑ PDC-2/30% OprD/5.6x ↑ABM): 2 µg/mL | MIC (P. aeruginosa; strain Paeβ-10, 67-fold ↑ PDC-2/0.1% OprD/5.7x↑ABM): 2 µg/mL | MIC (P. aeruginosa; strain Paeβ-15, 310-fold ↑ PDC-2/10% OprD/4.4x↑XYM): 4 µg/mL | MIC (P. aeruginosa; strain Paeβ-17, 62-fold ↑PDC-3/30% OprD/10.2x and 9.9x ↑XYM and CDJ): 2 µg/mL | MIC (P. aeruginosa; strain Paeβ-18, 600-fold ↑ PDC-3/<0.01% OprD/3.9x and 5.6x ↑ABM and XYM): 16 µg/mL | MIC (P. aeruginosa; strain Paeβ-21, 200-fold ↑ PDC-4/10% OprD/13.5x ↑XYM): 2 µg/mL | MIC (P. aeruginosa; strain Ps296, VIM-2): ≥ 256 µg/mL | MIC (K. oxytoca; strain 134943, CMY-2/TEM-1): 8 µg/mL | MIC (K. oxytoca; strain 847537, KPC): ≥ 256 µg/mL | MIC (S. paratyphi): 32 µg/mL | MIC (K. pneumoniae; strain 6299, OXA-163): ≥ 256 µg/mL | MIC (K. pneumoniae; strain 137052, SHV-11/KPC-3/TEM-1): 64 µg/mL | MIC (K. pneumoniae; strain 178279, SHV-12/TEM-1/AmpC): 64 µg/mL | MIC (K. pneumoniae; strain 196477, AmpC): ≥ 256 µg/mL | MIC (K. pneumoniae; strain 212027, AmpC/FOX-5/TEM-1): 8 µg/mL | MIC (K. pneumoniae; strain 515746, OXA-48): 128 µg/mL | MIC (K. pneumoniae; strain 664438, OXA-48): 128 µg/mL | MIC (K. pneumoniae; strain 664439, OXA-48): 128 µg/mL | MIC (K. pneumoniae; strain 722870, OXA-48): 64 µg/mL | MIC (K. pneumoniae; strain 752334, OXA-48): ≥ 256 µg/mL | MIC (K. pneumoniae; strain 769972, OXA-48): 128 µg/mL | MIC (K. pneumoniae; strain 787422, OXA-48): 64 µg/mL | MIC (K. pneumoniae; strain 845661, KPC): ≥ 256 µg/mL | MIC (K. pneumoniae; strain 847204, KPC): 64 µg/mL | MIC (K. pneumoniae; strain 848562, KPC): ≥ 256 µg/mL | MIC (K. pneumoniae; strain 848600, KPC): ≥ 256 µg/mL | MIC (K. pneumoniae; strain 848828, KPC): 128 µg/mL | MIC (K. pneumoniae; strain 849170, KPC): 128 µg/mL | MIC (K. pneumoniae; strain 856819, SHV-11/VIM-1): ≥ 256 µg/mL | MIC (K. pneumoniae; strain 864085, KPC): ≥ 256 µg/mL | MIC (K. pneumoniae; strain 871489, KPC): ≥ 256 µg/mL | MIC (K. pneumoniae; strain 873460, SHV-30/CTX-M-15): 128 µg/mL | MIC (K. pneumoniae; strain 874328, SHV-11/CTX-M-15/NDM-1): ≥ 256 µg/mL | MIC (K. pneumoniae; strain 882752, SHV-11/TEM-1/KPC-3): 128 µg/mL | MIC (K. pneumoniae; strain 882956, SHV-31/DHA-1/VIM-1): ≥ 256 µg/mL | MIC (K. pneumoniae; strain 884679, KPC): 64 µg/mL | MIC (K. pneumoniae; strain 890066, SHV-33/TEM-33/CTX-M-15/IMP-1): ≥ 256 µg/mL | MIC (K. pneumoniae; strain 892694, SHV-12/TEM-1/CTX-M-15/OXA-48/ACT): ≥ 256 µg/mL | MIC (K. pneumoniae; strain 919877, SHV-OSBL/VIM-1): ≥ 256 µg/mL | MIC (K. pneumoniae; strain 1104864, SHV-OSBL(b)/VIM-1): ≥ 256 µg/mL | MIC (K. pneumoniae; strain 1104866, SHV-OSBL(b)/VIM-1): ≥ 256 µg/mL | MIC (K. pneumoniae; strain 1280442, SHV-OSBL(b)/VIM-1): ≥ 256 µg/mL | MIC (K. pneumoniae; strain CDC-0003, KPC): 128 µg/mL | MIC (K. pneumoniae; strain CDC-0049, NDM): ≥ 256 µg/mL | MIC (K. pneumoniae; strain CDC-0117, KPC-3): 128 µg/mL | MIC (K. pneumoniae; strain CDC-0125, KPC-3): 128 µg/mL | MIC (K. pneumoniae; strain CDC-0139, NDM-1): ≥ 256 µg/mL | MIC (K. pneumoniae; strain CDC-0145, NDM): ≥ 256 µg/mL | MIC (K. pneumoniae; strain CDC-0148, NDM): ≥ 256 µg/mL | MIC (K. pneumoniae; strain CDC-0152, NDM): ≥ 256 µg/mL | MIC (K. pneumoniae; strain DOV, OXA-48): 128 µg/mL | MIC (K. pneumoniae; strain ESBL8 #1, TEM-1/SHV-12): 32 µg/mL | MIC (K. pneumoniae; strain ESBL 10, SHV-12/TEM-1): 32 µg/mL | MIC (K. pneumoniae; strain KIRK, OXA-162): 128 µg/mL | MIC (K. pneumoniae; strain KP 3, SHV-1/TEM-1): ≥ 256 µg/mL | MIC (K. pneumoniae; strain KPN 508, SHV-7/TEM-1): 32 µg/mL | MIC (K. pneumoniae; strain SI-C05, OXA-48): ≥ 256 µg/mL | MIC (K. pneumoniae; strain SI-F100, SHV-5/TEM-1/CMY-2): 16 µg/mL | MIC (K. pneumoniae; strain SI-KP NO30, TEM-26b/SHV-60/SHV-26): 64 µg/mL | MIC (M. morgannii): 8 µg/mL
